“Also recorded” adds a separate entry of the source.
Key:
[1] = Acute toxicity studies with compound 1 alone; assay type: in vivo; conditions: compound alone, 1, 5, and 10 mg/kg for 3 weeks
Protocol: (§1) Male Spraugue Dawley rats were treated with 50% HPDC vehicle (veh/veh), compound I dissolved in 50% HPDC at 1, 5, or 10 mg/kg (veh/1, veh/5, veh/10, respectively), or Taxol™ (9 mg/kg)+compound 1 dissolved in 50% HPDC at 1, 5, and 10 mg/kg (Tax/1, Tax/5, Tax/10) according to the dosing regime described in Example 160. Weight measurements were made ever other day.

[2] = test system: human lung carcinoma cells (H460); experiment: Co-treatment of H460 cell line with Taxol and compound 1; assay type: cell-based; conditions: Taxol™ (50 nM) + compound at 5, 10, 20 uM; Taxol™ and/or cisplatin
Protocol: H460 and OV2008 cells were plated and incubated for 48 hours. Compound 1 and/or compound 1 and Taxol™ were added. Viability was determined after 24 hours, staining with MTT (Promega).
FIG. 3 illustrates the co-treatment of H460 and OV 2008 cell lines with Taxol™ and compound 1. H460 lung carcinoma and OV2008 ovarian carcinoma cells were treated with Taxol™ (50 nM) and/or Taxol™ (50 nM)+compound 1 (noted as AEG 03482) at levels of 5, 10, and 20 uM.

[3] = test system: SCG neurons; experiment: In vitro protection of SCG neurons from vincristine killing; assay type: cell-based, Sprague Dawley rats; conditions: Rattus norvegicus, Neuron; vincristine (50 ng/mL), 48 hours, MTS; ±1 μM; read-out: IC50, protection of SCG neurons against Vincristine killing
Description: Similarly, vincristine and vinblastine are commonly used anti-tumour agents whose mode of action involve tubulin binding.

[4] = test system: Sprague Dawley rats; assay type: in vivo
Protocol: Taxol™ commonly causes dose dependent peripheral neuropathies during cancer treatment. […] All of the Taxol™ treated animals developed peripheral neuropathies, characterized by ‘tip toe walking’. The extent of this neuropathy was analyzed by quantifying the refracted light captured by a video camera as the animals walked over a glass plate.
Adult Sprague Dawley rats were treated with Taxol™ (IP, 9 mg/kg in Cremophor EL and ethanol) twice weekly for 3 weeks (J. Neuro-Oncology (1999) 41: 107-116). Compound was administered I hour prior to Taxol™ treatment (IP, 1, 5 and 10 mg/kg in hydroxypropyl-β-cyclodextrin). Taxol™ treated control animals were treated with saline solution at the same time of Compound treated animals. Non-treated control animals were treated with saline solution as above. Weight gain was measured every second day, starting at Day 1. Gait analysis was measured by quantifying the refracted light captured by a video camera as the animals walked over a glass plate, 2 days after the final Taxol™ treatment (Physiology and Behavior (1994), 55(4): 723-726; Med. Sci. Res. (1988) 16: 901-902). […] H/M wave recovery was analyzed using standard procedures 2 days after the final Taxol™ treatment (Muscle Nerve (1998) 21: 1405-1413; Annals of Neurology (1998) 43 (1): 46-55).
as §1
Two days after the completion of drug treatments animal walking gait was analyzed according to a) total imprint area, and b) total number of contact points.
FIG. 6 illustrates the effect of Compound 1 on H-reflex amplitude, a measurement of H/M wave disturbance induced by Taxol™. Two days after the completion of drug treatments, the dorsal root ganglia and attached nerves were dissected bilaterally from L4 and L5 and their H/M wave conductance measured.

[5] = 5 mg/kg with Taxol™ (9 mg/kg), bi-weekly

Which “acute signs of toxicity” value [1] does the source give for `NS(=O)(=O)c1nn2cc(-c3ccccc3)nc2s1` [Compound 1, 6-Phenylimidazo[2,1-b]-1,3,4-thiadiazole-2-sulfonamide] here?
The value was “No acute signs of toxicity”.

And the “protection of H460 cells from Taxol™ induced apoptosis” value [2]?
The value was “no protection; also recorded: did not protect”.

What about the IC50 [3] of the same compound?
The IC50 was 10 µM.

What about the “loss in foot pad contact” value [4, 5] of the same compound?
The value was 23%.

What about the “weight gain as compared to control” value [4, 5] of the same compound?
Its value is “normal weight gain”.

What about the “H/M wave disturbance induced by Taxol™ (H-reflex amplitude)” value ([4]; two days after completion of drug treatments) of the same compound?
Its value is “caused a reversal in H/M wave disturbance”.

And the “Taxol™ induced gait disturbance” value ([4]; two days after completion of drug treatments, total imprint area, number of contact points)?
Its value is “prevented Taxol™ induced gait disturbance”.
